Data: PMC10769324 (bioRxiv, 2024)

Assays:
[1] = biological target: T1, 5-HT2A (Homo sapiens, UniProt P28223); type: binding; conditions: [3H]-LSD 0.5 nM, HEK293 membranes; for log(Ki): printed as log(Ki) with negative sign
[2] = biological target: T1, 5-HT2A; conditions: Gαq dissociation vs β-arrestin2 recruitment, versus 5-HT

T1 sequence (P28223 whole entry): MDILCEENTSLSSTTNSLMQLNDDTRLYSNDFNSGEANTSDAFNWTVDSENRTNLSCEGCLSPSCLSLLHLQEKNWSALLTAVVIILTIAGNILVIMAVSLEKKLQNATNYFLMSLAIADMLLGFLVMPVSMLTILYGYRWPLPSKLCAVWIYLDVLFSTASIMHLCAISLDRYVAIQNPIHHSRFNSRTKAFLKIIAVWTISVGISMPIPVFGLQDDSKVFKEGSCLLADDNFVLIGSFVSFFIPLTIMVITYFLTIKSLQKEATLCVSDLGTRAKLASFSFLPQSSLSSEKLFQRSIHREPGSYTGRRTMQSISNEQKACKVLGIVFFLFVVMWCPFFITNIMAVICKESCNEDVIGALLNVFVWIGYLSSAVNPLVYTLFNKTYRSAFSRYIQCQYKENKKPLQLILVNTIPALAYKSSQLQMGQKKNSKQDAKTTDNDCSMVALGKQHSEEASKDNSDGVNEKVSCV

Row | SMILES | log(Ki) [1] | Ki [1] | Apparent Bias Factor [2]
1 | CC(C)C(N)CCN(C)C(=O)C(=O)Nc1cc2ccccc2cc1Cl (stereo not shown) [Compound Z5247694451] | −7.15 ± 0.073 |  | 
2 | Clc1ccc(C#CCN2CCCC(c3ccn[nH]3)C2)cc1 (stereo not shown) [Compound Z1348472291] | −6.65 ± 0.083 |  | 
3 | NC1Cc2ccccc2N(Cc2cc(O)cc(Br)c2)C1 (stereo not shown) [Compound Z7619689909] | −7.14 ± 0.078 | 0.072 µM | 
4 | C=C/C=C/CCN1CCC(O)(c2cccc(Br)c2)C1 (stereo not shown) [Compound Z5247693129] | −6.49 ± 0.094 |  | 
5 | Oc1ccc(C2=CCN(CC3CC34CC4)CC2)cc1 (stereo not shown) [Compound Z2945615615] | −7.62 ± 0.104 | 0.024 µM | 
6 | Cc1cccc(OCCCC(=O)N2CCNCc3ccccc32)c1 [Compound Z2393190959] | −6.51 ± 0.085 |  | 
7 | CN(C(=O)c1cn[nH]n1)C1CCN(CCc2cccc(Cl)c2Cl)C1 (stereo not shown) [Compound Z7619689892] | −7.78 ± 0.077 | 0.017 µM | 
8 | COc1ccc(COCCN(C)C(C)Cc2ccc(O)cc2)cc1 (stereo not shown) [Compound Z1441676226] | −6.77 ± 0.087 |  | 
9 | COc1ccccc1CC1CCN(CC(=O)c2cc(C)[nH]c2C)C1 (stereo not shown) [Compound Z7619689903] | −6.46 ± 0.086 | 0.344 µM | 
10 | c1ccc(O[C@H]2CCN(Cc3ccc(-c4ccn[nH]4)o3)C2)cc1 [Compound Z2449215308] | −6.79 ± 0.100 | 0.162 µM | 
11 | C=CCNC(=O)C(C)N1CCCC(c2ccc(O)cc2)C1 (stereo not shown) [Compound Z3517963976] | −6.95 ± 0.085 | 0.113 µM | 
12 | CCN(Cc1cc(Br)ccc1O)C(=O)C(N)Cc1ccco1 (stereo not shown) [Compound Z3865153101] | −6.94 ± 0.099 | 0.114 µM | 
13 | NCC1Cc2cc(F)ccc2N(C(=O)Cc2cc(F)ccc2Br)C1 (stereo not shown) [Compound Z7704262288] |  | 0.015 µM | 
14 | NCCc1c[nH]c2ccc(O)cc12 [serotonin] |  |  | 1.0
15 | O=C(c1cc(C2CCNC2)[nH]n1)N1CCC(c2cccc(Cl)c2)C1 (stereo not shown) [Compound Z3808146201] | −6.51 ± 0.096 |  | 
